Experimental data: patent US8431593B2, “Heteroaryl amide derivatives” (H. Lundbeck A/S, priority 2006, dated 2013)

Molecular target: T1, P2X7 receptor (Homo sapiens, UniProt Q99572)
T1 construct: host or cells: SH-SY5Y
T1 sequence (Q99572 1-595): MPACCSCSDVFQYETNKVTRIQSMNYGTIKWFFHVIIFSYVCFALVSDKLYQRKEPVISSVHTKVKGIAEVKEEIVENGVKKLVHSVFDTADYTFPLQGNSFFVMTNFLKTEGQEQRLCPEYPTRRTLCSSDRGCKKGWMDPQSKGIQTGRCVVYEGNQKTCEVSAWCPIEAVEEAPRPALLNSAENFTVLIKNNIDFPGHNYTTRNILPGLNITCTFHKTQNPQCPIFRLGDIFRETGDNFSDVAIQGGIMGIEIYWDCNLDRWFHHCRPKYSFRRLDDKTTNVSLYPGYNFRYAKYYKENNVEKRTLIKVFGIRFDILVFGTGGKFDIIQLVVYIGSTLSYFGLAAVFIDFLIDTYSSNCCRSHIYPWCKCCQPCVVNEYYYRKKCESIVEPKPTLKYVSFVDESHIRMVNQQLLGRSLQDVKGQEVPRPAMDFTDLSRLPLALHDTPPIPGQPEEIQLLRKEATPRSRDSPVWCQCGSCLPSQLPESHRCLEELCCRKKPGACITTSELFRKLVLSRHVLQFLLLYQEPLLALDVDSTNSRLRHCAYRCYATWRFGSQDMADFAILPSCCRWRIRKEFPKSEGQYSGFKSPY
Test: P2X7 calcium mobilization assay, high throughput, antagonist activity (Example 4A)
Assay type: cell-based
Details: not given
How it was run: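 Antagonism was measured as calcium fluorescence (FLIPR Tetra) in cells seeded one day earlier at 100,000/well, loaded with dye for 1 h and exposed to compound for 1 h at room temperature before agonist. Peak RFU, minus the no-agonist background, was referenced to the mean of the agonist wells.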

Row | SMILES | IC50 [nM]
1 | CCOC(=O)Cc1cn2c(C(=O)NCC34CC5CC(CC(C5)C3)C4)cccc2n1 [Compound 4, ethyl {5-[(adamantan-1-ylmethyl)carbamoyl]imi-dazo[1,2-a]pyridin-2-yl}acetate] | < 2000

Same assay, conditions: 50% decrease in the fluorescence response of cells exposed to 80 μM 2′(3′)-O-(4-benzoyl-benzoyl)adenosine 5′-triphosphate; Example 4A; read-out: IC50

Row | IC50 [nM] | SMILES
2 | < 2000 | CCOC(=O)C(C)(C)c1cn2c(C(=O)N(C)CC34CC5CC(CC(C5)C3)C4)cccc2n1 [Compound 451, ethyl 2-{5-[(adamantan-1-ylmethyl)(methyl)carbamoyl]imidazo [1,2-a]pyridin-2-yl} -2-methyl-propanoate]
3 | < 2000 | O=C(NCC12CC3CC(CC(C3)C1)C2)c1cccc2nc(C[S+]([O-])c3nnc[nH]3)cn12 (stereo not shown) [Compound 554, N-(adamantan-1-ylmethyl)-2-[(4H-1,2,4-triazol-3-ylsulfinyl)methyl]imidazo [1,2-a]pyridine-5-carboxamide]
4 | < 2000 | CC1(C)[C@H]2CC[C@@H](CNC(=O)c3cccc4nc(C(=O)N[C@@H]5CCCC[C@H]5O)cn34)[C@@H]1C2 [Compound 519, 5-N-{[(1S,2R,5S)-6,6-dimethylbicyclo[3.1.1]hept-2-yl]methyl}-2-N-[(1R,2R)-2-hydroxycyclohexyl] imidazo[1,2-a]pyridine-2,5-dicarboxamide]
5 | < 2000 | CC1(C)C2CC[C@H](CNC(=O)c3cccc4nc(C(=O)N5CCC[C@@H](N)C5)cn34)C1C2 (relative stereo) [Compound 548, rel-2-{[(3R)-3-aminopiperidin-1-yl]carbonyl}-N-{[(2S)-6,6-dimethylbicyclo[3.1.1]hept-2-yl]methyl}imidazo[1,2-a]pyridine-5-carboxamide]
6 | < 2000 | CC1(C)[C@@H]2CC[C@@H](CNC(=O)c3cccc4nc(CC(=O)N5CCCC5CN)cn34)[C@H]1C2 (stereo partly drawn) [Compound 580, 2-{2-[2-(aminomethyl)pyrrolidin-1-yl]-2-oxoethyl}-N-{[(1R,2R,5R)-6,6-dimethylbicyclo[3.1.1]hept-2-yl]methyl}imidazo[1,2-a]pyridine-5-carboxamide]
7 | < 2000 | CC1(C)[C@H]2CC[C@@H](CNC(=O)c3cccc4nc(C(=O)N5CCCCC5)cn34)[C@@H]1C2 [Compound 465, N-{[(1S,2R,5S)-6,6-dimethylbicyclo[3.1.1]hept-2-yl]methyl}-2-(piperidin-1-ylcarbonyl)imidazo[1,2-a]pyridine-5-carboxamide]
8 | < 2000 | COC[C@@H]1CCCN1C(=O)c1cn2c(C(=O)NC[C@@H]3CC[C@H]4C[C@@H]3C4(C)C)cccc2n1 [Compound 473, N-{[(1S,2R,5S)-6,6-dimethylbicyclo[3.1.1]hept-2-yl]methyl}-2-{[(2S)-2-(methoxymethyl)pyrrolidin-1-yl]carbonyl}imidazo[1,2-a]pyridine-5-carboxamide]

Same assay, conditions: 50% decrease in the fluorescence response of cells exposed to 80 μM of 2′(3′)-O-(4-benzoyl-benzoyl)adenosine 5′-triphosphate; Example 4A; read-out: IC50

Row | IC50 [nM] | SMILES
9 | < 2000 | Cc1cnc(CNC(=O)c2cn3c(C(=O)NCC45CC6CC(CC(C6)C4)C5)cccc3n2)cn1 [Compound 656, 5-N-(adamantan-1-ylmethyl)-2-N-[(5-methylpyrazin-2-yl)methyl]imidazo[1,2-a]pyridine-2,5-dicarboxamide]
10 | < 2000 | Cn1ncc2c1CCN(C(=O)c1cn3c(C(=O)NCC45CC6CC(CC(C6)C4)C5)cccc3n1)C2 [Compound 723, N-(adamantan-1-ylmethyl)-2-[(1-methyl-1,4,6,7-tetrahydro-5H-pyrazolo[4,3-c]pyridin-5-yl)carbonyl]imidazo[1,2-a]pyridine-5-carboxamide]
11 | < 2000 | O=C(NCC1CCCN1)c1cn2c(C(=O)NCC34CC5CC(CC(C5)C3)C4)cccc2n1 (stereo not shown) [Compound 639, 5-N-(adamantan-1-ylmethyl)-2-N-(pyrrolidin-2-ylmethyl)imidazo[1,2-a]pyridine-2,5-dicarboxamide]
12 | < 2000 | CC1(C)C2CC[C@H](CNC(=O)c3cccc4nc(CC(=O)O)cn34)C1C2 (stereo in doubt) [Compound 682, (5-{[(6,6-dimethylbicyclo[3.1.1]hept-2-yl)methyl]carbamoyl}imidazo[1,2-a]pyridin-2-yl)acetic acid]

Row | SMILES | IC50 [nM]
13 | CN(C)[C@@H]1CCN(C(=O)Cc2cn3c(C(=O)NCC45CC6CC(CC(C6)C4)C5)cccc3n2)C1 [Compound 691, N-(adamantan-1-ylmethyl)-2-{2-[(3R)-3-(dimethylamino)pyrrolidin-1-yl]-2-oxoethyl}imidazo[1,2-a]pyridine-5-carboxamide] | < 2000

Same assay, conditions: 50% decrease in the fluorescence response of cells exposed to 80 μM of 2′(3′)-O-(4-benzoyl-benzoyl)adenosine 5′-triphosphate; determined as in Example 4A; read-out: IC50

Row | IC50 [nM] | SMILES
14 | < 2000 | Cc1ccc(C2(CNC(=O)c3cccc4nc(Cn5nnc(CCO)n5)cn34)CCCCC2)cn1 [Compound 922, 2-{[5-(2-hydroxyethyl)-2H-tetrazol-2-yl]methyl}-N-{[1-(6-methylpyridin-3-yl)cyclohexyl]methyl} imidazo[1,2-a] pyridine-5-carboxamide]
15 | < 2000 | O=C(NCC12CC3CC(CC(C3)C1)C2)c1cccc2nc([C@H]3CCCC[C@H]3C(=O)O)cn12 (relative stereo) [Compound 995, rel-(1R,2S)-2-{5-[(adamantan-1-ylmethyl)carbamoyl]imidazo[1,2-a]pyridin-2-yl} cyclohexane-carboxylic acid]
16 | < 2000 | O=C(Cc1cn2c(C(=O)NCC3(c4ccc(C(F)(F)F)cc4)CCCCC3)cccc2n1)NCC1CC1 [Compound 860, 2-{2-[(cyclopropylmethyl)amino]-2-oxoethyl}-N-({1-[4-(trifluoromethyl)phenyl]cyclohexyl}methyl) imidazo[1,2-a] pyridine-5-carboxamide]
17 | < 2000 | CCOC(=O)Cc1cn2c(C(=O)NCC(CC(C)C)c3ccc(Cl)cc3)cccc2n1 (stereo not shown) [Compound 913, ethyl (5-{[2-(4-chlorophenyl)-4-methylpentyl]carbamoyl}imidazo[1,2-a]pyridin-2-yl) acetate]

Same assay, conditions: P2X7 calcium mobilization, Example 4A; 50% decrease in the fluorescence response of cells exposed to 80 μM of (2′(3′)-O-(4-benzoyl-benzoyl)adenosine 5′-triphosephate); read-out: IC50

Row | IC50 [nM] | SMILES
18 | < 2000 | O=C(NCC1(c2ccc(C(F)(F)F)cc2)CCCCC1)c1cccc2nc(C(F)(F)F)cn12 [Compound 1018, 2-(trifluoromethyl)-N-({1-[4-(trifluoromethyl)phenyl]cyclohexyl}methyl) imidazo [1,2-a]pyridine-5-carboxamide]

Same assay, conditions: SH-SY5Y cells; 50% decrease in fluorescence response to 80 μM BzATP; read-out: IC50

Row | IC50 [nM] | SMILES
19 | < 2000 | CN1CCC(N(C)C(=O)c2cn3c(C(=O)NCC45CC6CC(CC(C6)C4)C5)cccc3n2)C1 (stereo not shown) [Compound 92, 5-N-(adamantan-1-ylmethyl)--methyl--(1-methylpyrrolidin-3-yl)imidazo[1,2-a]pyridine-2,5-dicarboxamide]
20 | < 2000 | NC(=O)C1CCCN(C(=O)c2cn3c(C(=O)NCC45CC6CC(CC(C6)C4)C5)cccc3n2)C1 (stereo not shown) [Compound 103, N-(adamantan-1-ylmethyl)-2-[(3-carbamoylpiperidin-1-yl)carbonyl]imidazo[1,2-a]pyridine-5-carboxamide]
21 | < 2000 | NC(=O)CNC(=O)c1cn2c(C(=O)NCC34CC5CC(CC(C5)C3)C4)cccc2n1 [Compound 78, 5-N-(adamantan-1-ylmethyl)--(2-amino-2-oxoethyl)imidazo[1,2-a]pyridine-2,5-dicarboxamide]
22 | < 2000 | CCNC(=O)c1cn2c(C(=O)NCC34CC5CC(CC(C5)C3)C4)cccc2n1 [Compound 72, 5-N-(adamantan-1-ylmethyl)-- ethylimidazo[1,2-a]pyridine-2,5-dicarboxamide]
23 | < 2000 | COCCN(C)C(=O)CNC(=O)c1cn2c(C(=O)NCC34CC5CC(CC(C5)C3)C4)cccc2n1 [Compound 75, 5-N-(adamantan-1-ylmethyl)--{2-[(2-methoxy-ethyl)(methyl)amino]-2-oxoethyl}imidazo[1,2-a]pyridine-2,5-dicarboxamide]
24 | < 2000 | CC(C)[C@H](CO)NC(=O)Cc1cn2c(C(=O)NCC34CC5CC(CC(C5)C3)C4)cccc2n1 [Compound 32, N-(adamantan-1-ylmethyl)-2-(2-{[(1R)-1-(hydroxymethyl)-2-methylpropyl]amino}-2-oxoethyl)imidazo[1,2-a]pyridine-5-carboxamide]

Same assay, conditions: fluorescence response of cells exposed to 80 μM 2′(3′)-O-(4-benzoyl-benzoyl)adenosine 5′-triphosphate; Example 4A; read-out: IC50

Row | IC50 [nM] | SMILES
25 | < 2000 | CC(C)CC(CNC(=O)c1cccc2nc(C(=O)N3CCCC3)cn12)c1ccccc1 (stereo not shown) [Compound 260, N-(4-methyl-2-phenylpentyl)-2-(pyrrolidin-1-ylcarbonyl)imidazo [1,2-a]pyridine-5-carboxamide]
26 | < 2000 | CN(C)C(=O)c1cn2c(NC(=O)CC34CC5CC(CC(C5)C3)C4)cccc2n1 [Compound 370, 5-[(adamantan-1-ylacetyl)amino]-N,N-dimethylimidazo[1,2-a]pyridine-2-carboxamide]
27 | < 2000 | O=C(O)CCSCc1cn2c(C(=O)NCC34CC5CC(CC(C5)C3)C4)cccc2n1 [Compound 342, 3-[({5-[(adamantan-1-ylmethyl)carbamoyl]imidazo[1,2-a]pyridin-2-yl}methyl)thio] propanoic acid]
28 | < 2000 | CC(C)N(CCO)C(=O)c1cn2c(NC(=O)CC34CC5CC(CC(C5)C3)C4)cccc2n1 [Compound 413, 5-[(adamantan-1-ylacetyl)amino]-N-(2-hydroxyethyl)-N-isopropylimidazo[1,2-a]pyridine-2-carboxamide]
